ChEMBL document CHEMBL6096661, “Synthesis, biological evaluation and mechanism study of a novel indole-pyridine chalcone derivative as antiproliferative agent against tumor cells through dual targeting tubulin and HK2” (Eur J Med Chem, 2025)
The source made the active and inactive calls. No cut-off for these calls is given here.

Columns and labels:
MDA-MB-231 [1] = assay: Induction of ROS generation in human MDA-MB-231 cells assessed as increase in green fluorescence at 1 uM incubated for 24 hrs by DCFH-DA staining based flow cytometric analysis (reference value: 62.3 %); assay type: functional
MDA-MB-231 [2] = assay: Antiproliferative activity against human MDA-MB-231 cells assessed as inhibition of cell proliferation incubated for 1 day by CCK-8 assay; assay type: functional, cell-based; conditions: MDA-MB-231, 24 h
LoVo [3] = assay: Antiproliferative activity against human LoVo cells assessed as inhibition of cell proliferation incubated for 4 days by CCK-8 assay; assay type: functional, cell-based; conditions: 96 h
MDA-MB-231 [4] = assay: Induction of apoptosis in human MDA-MB-231 cells assessed as increase in total apoptotic cells at 0.5 to 2 uM by annexin-V/PI double staining based flow cytometric analysis; assay type: functional, cell-based; conditions: dose 0.5-2 µM
LoVo [5] = assay: Antiproliferative activity against human LoVo cells assessed as inhibition of cell proliferation incubated for 3 days by CCK-8 assay; assay type: functional, cell-based; conditions: 72 h
MDA-MB-231 [6] = assay: Induction of apoptosis in human MDA-MB-231 cells assessed as upregulation of Bax level by Western blotting analysis; assay type: functional, cell-based; conditions: dose 0.5-2 µM
HCT-116 [7] = assay: Antiproliferative activity against human HCT-116 cells assessed as inhibition of cell growth incubated for 48 hrs by CCK-8 assay; assay type: functional, cell-based; conditions: HCT-116, 48 h
HT-1080 = assay: Antiproliferative activity against human HT-1080 cells assessed as inhibition of cell growth incubated for 48 hrs by CCK-8 assay; assay type: functional, cell-based; conditions: HT-1080, 48 h
Mitochondrial membrane [8] = assay: […] in human MDA-MB-231 cells at 0.5 uM by JC-1 fluorescent probe based flow cytometric analysis (reference value: 2.56 %)
[9] = target: T1, Hexokinase-2 (Homo sapiens) (UniProt P52789); assay: Non-competitive inhibition of human HK2 transfected in Escherichia coli BL21 (DE) assessed as constant Km with decrease in Vmax at 0.25 to 4 uM using ATP as substrate by Lineweaver-Burk plot analysis; conditions: dose 0.25-4 µM
T1 sequence (whole entry): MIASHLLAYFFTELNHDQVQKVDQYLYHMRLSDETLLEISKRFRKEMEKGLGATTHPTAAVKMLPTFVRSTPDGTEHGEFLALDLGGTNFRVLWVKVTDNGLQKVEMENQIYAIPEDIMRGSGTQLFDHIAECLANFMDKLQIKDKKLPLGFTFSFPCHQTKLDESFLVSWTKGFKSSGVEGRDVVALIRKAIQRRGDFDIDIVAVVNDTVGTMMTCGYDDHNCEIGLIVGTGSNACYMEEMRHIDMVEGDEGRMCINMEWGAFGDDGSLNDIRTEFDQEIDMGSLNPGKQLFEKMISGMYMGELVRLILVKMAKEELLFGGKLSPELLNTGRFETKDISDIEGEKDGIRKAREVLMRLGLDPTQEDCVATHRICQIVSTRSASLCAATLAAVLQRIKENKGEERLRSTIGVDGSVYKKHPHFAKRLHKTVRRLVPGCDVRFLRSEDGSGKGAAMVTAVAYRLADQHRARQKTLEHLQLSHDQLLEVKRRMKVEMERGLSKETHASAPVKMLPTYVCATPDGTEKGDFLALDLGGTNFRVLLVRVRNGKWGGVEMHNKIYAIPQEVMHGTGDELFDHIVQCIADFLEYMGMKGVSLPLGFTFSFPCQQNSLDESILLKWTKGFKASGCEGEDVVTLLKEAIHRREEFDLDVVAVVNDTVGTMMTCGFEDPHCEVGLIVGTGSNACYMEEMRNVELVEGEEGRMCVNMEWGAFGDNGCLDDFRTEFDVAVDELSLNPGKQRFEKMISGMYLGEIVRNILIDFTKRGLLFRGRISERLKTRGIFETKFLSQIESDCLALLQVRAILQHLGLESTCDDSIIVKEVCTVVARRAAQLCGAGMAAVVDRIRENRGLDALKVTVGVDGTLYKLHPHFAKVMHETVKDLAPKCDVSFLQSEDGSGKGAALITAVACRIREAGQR

MDA-MB-231 [10] = assay: Induction of cell cycle arrest in human MDA-MB-231 cells assessed as increased proportion of cells at S phase at 0.5 to 2 uM by flow cytometric analysis; assay type: functional, cell-based; conditions: dose 0.5-2 µM
Tubulin (Homo sapiens) [11] = target: T2, Tubulin (Homo sapiens) (UniProt P68371+Q9H4B7+P0DPH7+P68366+Q13509+Q71U36+P04350+Q3ZCM7+P07437+P68363+Q9BQE3+Q6PEY2+Q13885+Q9BVA1+Q9BUF5); assay: Disruption of microtubule network in human MDA-MB-231 cells assessed as reduced microtubule network at 1 to 2 uM incubated for 24 hrs by DAPI staining based fluorescence microscopic analysis; assay type: cell-based; conditions: dose 1-2 µM
MDA-MB-231 [12] = assay: Induction of apoptosis in human MDA-MB-231 cells assessed as pyknotic bright nuclei at 0.5 to 2 uM incubated for 24 hrs by Hoechst 33342 staining based fluorescence microscopic analysis; assay type: functional, cell-based; conditions: dose 0.5-2 µM
LoVo [13] = assay: Antiproliferative activity against human LoVo cells assessed as inhibition of cell proliferation incubated for 1 day by CCK-8 assay; assay type: functional, cell-based; conditions: 24 h
Tubulin (Homo sapiens) [14] = target: T2, Tubulin (Homo sapiens); assay: Disruption of microtubule network in human MDA-MB-231 cells assessed as disorganized microtubule network at 1 to 2 uM incubated for 24 hrs by DAPI staining based fluorescence microscopic analysis; assay type: cell-based; conditions: dose 1-2 µM
MDA-MB-231 [15] = assay: Inhibition of colony formation in human MDA-MB-231 cells assessed as reduction in number of colonies at 1 uM incubated for 8 days by crystal violet staining based assay; assay type: functional, cell-based; conditions: time 8.0 day
MDA-MB-231 [16] = assay: Induction of ROS generation in human MDA-MB-231 cells assessed as increase in green fluorescence incubated for 24 hrs by DCFH-DA staining based flow cytometric analysis relative to control; assay type: functional, cell-based; conditions: dose 0.5-2 µM
MDA-MB-231 [17] = assay: Induction of apoptosis in human MDA-MB-231 cells assessed as decrease in Caspase 3 level by Western blotting analysis; assay type: functional, cell-based; conditions: dose 0.5-2 µM
MDA-MB-231 [18] = assay: Induction of apoptosis in human MDA-MB-231 cells assessed as decrease in HIF-1a level by Western blotting analysis; assay type: functional, cell-based; conditions: dose 0.5-2 µM
Mitochondrial membrane [19] = assay: […] in human MDA-MB-231 cells at 2.0 uM by JC-1 fluorescent probe based flow cytometric analysis (reference value: 2.56 %)
Tubulin (Homo sapiens) [20] = target: T2, Tubulin (Homo sapiens); assay: Disruption of microtubule network in human MDA-MB-231 cells assessed as atrophy fiber structure at 1 to 2 uM incubated for 24 hrs by DAPI staining based fluorescence microscopic analysis; assay type: cell-based; conditions: dose 1-2 µM
MDA-MB-231 [21] = assay: Antiproliferative activity against human MDA-MB-231 cells assessed as inhibition of cell proliferation incubated for 3 days by CCK-8 assay; assay type: functional, cell-based; conditions: MDA-MB-231, 72 h
HCT-116 [22] = assay: Antiproliferative activity against human HCT-116 cells assessed as inhibition of cell proliferation incubated for 4 days by CCK-8 assay; assay type: functional, cell-based; conditions: HCT-116, 96 h
MDA-MB-231 [23] = assay: Induction of apoptosis in human MDA-MB-231 cells assessed as upregulation of cleaved-caspase 3 level by Western blotting analysis; assay type: functional, cell-based; conditions: dose 0.5-2 µM
Tubulin (Homo sapiens) [24] = target: T2, Tubulin (Homo sapiens); assay: Disruption of microtubule network in human MDA-MB-231 cells assessed as punctate fiber structure at 1 to 2 uM incubated for 24 hrs by DAPI staining based fluorescence microscopic analysis; assay type: cell-based; conditions: dose 1-2 µM

IC50 (MDA-MB-231 [2]): 1.64 µM
IC50 (LoVo [3]): 0.629 µM
IC50 (LoVo [5]): 0.551 µM
IC50 (HCT-116 [7]): 0.512 µM
IC50 (HT-1080): 0.872 µM
Activity (Mitochondrial membrane [8]): 5.5%
inhibition [9]: Active
Activity (Tubulin (Homo sapiens) [11]): Active
IC50 (LoVo [13]): 1.17 µM
Activity (Tubulin (Homo sapiens) [14]): Active
Activity (Mitochondrial membrane [19]): 32.3%
Activity (Tubulin (Homo sapiens) [20]): Active
IC50 (MDA-MB-231 [21]): 0.561 µM
IC50 (HCT-116 [22]): 0.299 µM
Activity (Tubulin (Homo sapiens) [24]): Active
Structure (SMILES): O=C(/C=C/c1cn(S(=O)(=O)c2ccc([N+](=O)[O-])cc2)c2ccc(N3CCOCC3)cc12)c1cccnc1
Activity (MDA-MB-231 [1]): 90.4%
Activity (MDA-MB-231 [4]): Time-dependent-effect
Activity (MDA-MB-231 [6]): Dose-dependent-effect
Activity (MDA-MB-231 [10]): Active
Activity (MDA-MB-231 [12]): Active
inhibition (MDA-MB-231 [15]): Active
Activity (MDA-MB-231 [16]): Dose-dependent-effect
Activity (MDA-MB-231 [17]): Dose-dependent-effect
Activity (MDA-MB-231 [18]): Dose-dependent-effect
Activity (MDA-MB-231 [23]): Dose-dependent-effect
